# Paper PMC10383271
# Assays:
# [1] = test system: alpha-1-acid glycoprotein (AAG); assay: Binding site study with AAG, replacement of marker quinaldine red (fluorescence); set-up: species or system human
# Source text: Orosomucoid has seven binding sites in its molecule, but there is only one site where the drugs bind. A very good fluorescent marker for binding site study in the case of AAG is quinalidine red (QR).
# We used a 500 nm excitation wavelength. In these conditions, the maximum emission spectra were located near 600 nm. We increased the molar ratio of the reactants from 1:1:0 to 1:1:10. The intensity of fluorescence decreases during the addition of successive portions of the analyzed compounds.
# Binding site studies were conducted using fluorescence measurements. Spectra were recorded on Cary Eclipse 500 spectrophotometer (Agilent, Santa Clara, CA, USA) at room temperature with a 10 mm path length. HSA and AAG solutions were prepared in phosphate buffer, giving concentrations equal to 1 × 10^−6 M. The concentrations of dansylated-L-glycine (DanG), dansylated-L-phenylalanine (DanF), and quinaldine red (QR) were 1 × 10^−3 M. The densylated amino acids and QR solutions were prepared in ethanol. For the HSA-dansylated amino acids studies, the excitation wavelength was equal to 350 nm, while for the AAG-QR system, it was 500 nm, respectively. Then, 3 mL of protein was mixed with 3 µL of marker solution, giving a molar ratio of 1 to 1. Next, successive portions of the analyzed compounds were added to the mixtures prepared in this way, obtaining the appropriate protein-to-compound molar ratios, amounting to 1:0, 1:0.5, 1:1, 1:2, 1:3, 1:4, 1:5, and 1:10 for the HSA-densylated amino acids systems, and 1:0, 1:0.5, 1:1, 1:2, 1:3, 1:4, 1:6, 1:8, and 1:10 for the AAG-QR systems.
# [2] = target: human serum albumin (HSA) (Homo sapiens, UniProt P02768); assay: Fluorescence quenching titration of HSA; conditions: for Kd: logKb
# Method: (§1) Aex is the absorbance at excitation wavelengths, and Aem is the absorbance at emission wavelengths.
# (§2) The correlation between the stability constant of complexes Kb and standard thermodynamic parameters enthalpy change (ΔH°), and entropy change (ΔS°) was determined by the van’t Hoff Equation (4):(4) logKb=−∆H^°/RT+∆S^°/R where R is the universal gas constant; the free energy change (ΔG°) can be calculated by following Equation (5):(5) ∆G^°=∆H^°−T∆S^°=−RTlnKb
# (§3) The fluorescence study was performed on a Cary Eclipse 500 spectrophotometer (Agilent, Santa Clara, CA, USA). The spectra were recorded in a cuvette with 10 mm path length at an emission range of 300–500 nm, and the excitation wavelength was 280 nm.
# [3] = test system: alpha-1-acid glycoprotein (AAG); assay: Fluorescence quenching titration of AAG
# Method: as §1, §2, §3
# 15-LOX = target: T1, 15-LOX (Glycine max, UniProt P08170); assay: 15-LOX inhibition, Cayman's Lipoxygenase Inhibitor Screening Assay Kit
# T1 sequence (P08170 1-839): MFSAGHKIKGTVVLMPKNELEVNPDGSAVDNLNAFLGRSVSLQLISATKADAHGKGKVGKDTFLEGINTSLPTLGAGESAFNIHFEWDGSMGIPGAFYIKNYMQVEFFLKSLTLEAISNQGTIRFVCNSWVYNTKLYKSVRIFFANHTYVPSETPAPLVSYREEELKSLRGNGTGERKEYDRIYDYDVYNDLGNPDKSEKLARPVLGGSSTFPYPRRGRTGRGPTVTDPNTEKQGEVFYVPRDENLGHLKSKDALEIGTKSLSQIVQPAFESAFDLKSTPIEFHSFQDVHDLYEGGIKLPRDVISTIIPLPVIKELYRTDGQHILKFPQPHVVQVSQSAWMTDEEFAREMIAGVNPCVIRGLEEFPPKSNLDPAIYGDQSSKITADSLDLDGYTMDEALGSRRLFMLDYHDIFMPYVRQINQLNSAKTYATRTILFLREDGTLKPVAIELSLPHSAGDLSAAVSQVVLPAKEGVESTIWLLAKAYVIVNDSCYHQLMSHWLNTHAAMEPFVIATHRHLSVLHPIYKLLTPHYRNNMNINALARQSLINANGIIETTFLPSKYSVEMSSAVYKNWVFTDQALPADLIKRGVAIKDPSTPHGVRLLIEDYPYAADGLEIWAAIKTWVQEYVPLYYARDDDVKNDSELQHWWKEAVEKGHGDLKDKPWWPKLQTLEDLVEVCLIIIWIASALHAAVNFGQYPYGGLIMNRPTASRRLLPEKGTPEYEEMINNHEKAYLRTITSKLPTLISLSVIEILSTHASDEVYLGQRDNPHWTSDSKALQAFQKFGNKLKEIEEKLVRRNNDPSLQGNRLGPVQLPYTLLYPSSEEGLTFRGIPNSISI
# COX-2 = target: T2, COX-2 (Homo sapiens, UniProt P35354); assay: COX-2 inhibition, Cayman's COX Colorimetric Inhibitor Screening Assay Kit
# T2 sequence (P35354 18-604): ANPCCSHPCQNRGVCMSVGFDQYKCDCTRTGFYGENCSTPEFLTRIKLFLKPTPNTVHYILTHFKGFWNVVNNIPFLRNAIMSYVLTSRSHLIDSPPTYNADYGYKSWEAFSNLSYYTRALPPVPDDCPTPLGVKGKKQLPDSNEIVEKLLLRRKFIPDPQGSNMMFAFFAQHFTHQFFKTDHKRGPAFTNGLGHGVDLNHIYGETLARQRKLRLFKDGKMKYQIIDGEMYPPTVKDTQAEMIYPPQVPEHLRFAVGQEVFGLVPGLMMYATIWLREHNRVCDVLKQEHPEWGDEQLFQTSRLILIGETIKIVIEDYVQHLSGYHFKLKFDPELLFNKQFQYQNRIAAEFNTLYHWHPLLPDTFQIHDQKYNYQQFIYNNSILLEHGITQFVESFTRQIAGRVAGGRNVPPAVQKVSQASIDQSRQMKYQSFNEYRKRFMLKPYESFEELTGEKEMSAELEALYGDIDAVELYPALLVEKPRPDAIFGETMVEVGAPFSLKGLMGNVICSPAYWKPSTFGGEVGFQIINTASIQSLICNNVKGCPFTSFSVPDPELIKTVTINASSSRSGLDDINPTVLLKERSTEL
# human serum albumin (HSA), sequence (P02768 25-609): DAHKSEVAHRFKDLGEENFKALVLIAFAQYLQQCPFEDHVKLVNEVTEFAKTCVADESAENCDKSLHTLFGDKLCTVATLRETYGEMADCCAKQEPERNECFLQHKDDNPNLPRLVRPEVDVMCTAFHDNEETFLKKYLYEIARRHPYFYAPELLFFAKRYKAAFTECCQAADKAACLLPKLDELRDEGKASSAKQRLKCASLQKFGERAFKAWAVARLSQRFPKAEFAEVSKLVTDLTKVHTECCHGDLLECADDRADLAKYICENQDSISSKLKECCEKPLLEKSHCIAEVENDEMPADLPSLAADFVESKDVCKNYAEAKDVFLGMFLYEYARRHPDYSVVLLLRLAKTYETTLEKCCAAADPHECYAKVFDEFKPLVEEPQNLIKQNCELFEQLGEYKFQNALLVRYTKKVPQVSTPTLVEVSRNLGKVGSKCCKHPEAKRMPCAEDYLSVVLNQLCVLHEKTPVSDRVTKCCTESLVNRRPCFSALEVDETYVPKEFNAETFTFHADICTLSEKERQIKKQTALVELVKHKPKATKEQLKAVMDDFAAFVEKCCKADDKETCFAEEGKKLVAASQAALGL
structure (smiles),measurement,setting,value
"Cc1c2c(OCC(=O)N/N=C/c3ccccc3)nn(C)c(=O)c2c(C)n1-c1cccc(Cl)c1 [Compound 5c, N-[(Z/E)-benzylideneamino]-2-[6-(3-chlorophenyl)-3,5,7-trimethyl-4-oxo-pyrrolo[3,4-d]pyridazin-1-yl]oxyacetamide]",percentage of the replacement of QR,[1]; AAG:marker:compound molar ratio 1:1:0.5,31.7%
same,percentage of the replacement of QR,[1]; AAG:marker:compound molar ratio 1:1:1,39.7%
same,percentage of the replacement of QR,[1]; AAG:marker:compound molar ratio 1:1:2,52.4%
same,percentage of the replacement of QR,[1]; AAG:marker:compound molar ratio 1:1:3,54.0%
same,percentage of the replacement of QR,[1]; AAG:marker:compound molar ratio 1:1:4,54.8%
same,percentage of the replacement of QR,[1]; AAG:marker:compound molar ratio 1:1:6,55.6%
same,percentage of the replacement of QR,[1]; AAG:marker:compound molar ratio 1:1:8,55.6%
same,percentage of the replacement of QR,[1]; AAG:marker:compound molar ratio 1:1:10,55.6%
same,Ksv,[2]; T 297 K,4.33± 0.25 × 10^5 dm^3·mol^−1
same,kq,[2]; T 297 K,4.33 × 10^13 dm^3·mol^−1·s^−1
same,n (number of binding sites),[2]; T 297 K,0.92 ± 0.06
same,Ksv,[2]; T 303 K,3.86 ± 0.13 × 10^5 dm^3·mol^−1
same,kq,[2]; T 303 K,3.86 × 10^13 dm^3·mol^−1·s^−1
same,n (number of binding sites),[2]; T 303 K,0.90 ± 0.02
same,Ksv,[2]; T 308 K,2.87 ± 0.12 × 10^5 dm^3·mol^−1
same,kq,[2]; T 308 K,2.87 × 10^13 dm^3·mol^−1·s^−1
same,n (number of binding sites),[2]; T 308 K,0.85 ± 0.04
same,Kd,[2]; T 297 K,6.17 µM
same,Kd,[2]; T 303 K,8.91 µM
same,Kd,[2]; T 308 K,26.3 µM
same,ΔG°,"[2]; one value per compound, temperature not given",-7.163 kcal/mol
same,ΔH°,[2]; van't Hoff,-23.45 kcal/mol
same,ΔS°,[2]; van't Hoff,−229.47 J·mol^−1·K^−1
same,Ksv,[3]; T 297 K,15.87± 2.41 ·10^4 dm^3·mol^−1
same,kq,[3]; T 297 K,15.87 ·10^12 dm^3·mol^−1·s^−1
same,logKb,[3]; T 297 K,2.64 ± 0.16
same,Ksv,[3]; T 303 K,14.60 ± 2.05 ·10^4 dm^3·mol^−1
same,kq,[3]; T 303 K,14.60 ·10^12 dm^3·mol^−1·s^−1
same,logKb,[3]; T 303 K,2.47 ± 0.17
same,Ksv,[3]; T 308 K,9.99 ± 1.60 ·10^4 dm^3·mol^−1
same,kq,[3]; T 308 K,9.99 ·10^12 dm^3·mol^−1·s^−1
same,logKb,[3]; T 308 K,2.31 ± 0.20
same,IC50,15-LOX,12.7 ± 0.04 µM
same,IC50,COX-2,23.6 ± 2.5 µM
same,Selectivity Index (SI),COX-2; COX-2 IC50/COX-1 IC50,0.23
